{
  "source": "patent US7846971B2",
  "about": "“N-halogenated amino acids, N,N-dihalogenated amino acids and derivatives; compositions and methods of using them” (Novabay Pharmaceuticals, Inc., priority 2005, dated 2010)",
  "key": {"[1]": {"test_system": "Primary Human Skin Fibroblasts", "experiment": "XTT cytotoxicity assay on primary human skin fibroblasts", "type": "cell-based", "protocol": "Cytotoxicity was assessed by a colorimetric assay system, initially described by Scudiero et al., using 3′-(phenylamino-carbonyl)-3,4-tetrazolium-bis (4-methoxy-6-nitro) benzene sulfonic acid hydrate (XTT), ProCheck™ cell viability assay (Evaluation of a soluble tetrazolium/formazan assay for cell growth and drug sensitivity in culture using human and other tumor cell lines described by Scudiero D A, Shoemaker R A H, Paul K D, Monks A, Tierney S, Nofziger T H, Currens M J, Seniff D, Boyd M R. Cancer Res. 1988 Septmeber 1;48(17):4827-33). […] Three cell types were used: mouse lung epithelial cells (L929), primary human skin fibroblast and primary human keratinocyte cells cultured in Dulbecco Modified Eagle's Medium and Keratinocyte defined medium with corresponding growth factors plus antibiotics. Cells were trypsinized and counted under the microscope and seeded at 1000-to-2000 cells per well of a flat-bottom 96-well plate. Cells were allowed to grow over-night at 37° C. Next day, tissue culture media was removed and cells were rinsed with fresh media 1× and then left in 50 μL of tissue culture media. Test articles were prepared as 2-fold dilutions and 200 μL was added into each set of 4-wells (total volume per well=250 μL). Cells were exposed to test articles for 60 min at room temperature. Immediately after the exposed time, test article from each well was removed and cells were fed with 250 μL of fresh media. Plates were incubated at 37° C. for 18-20 hours. The following day media was removed again and replaced with 100 μL/well of fresh media containing 10/100 μL XTT-reagent. Cells were incubated under growth conditions (5% CO2 at 37° C. humidified incubator), protected from light, until color development was achieved. Absorbance was read at 450 nm with reference wavelength at 750 nm using Molecular Device ThermoMax Plate reader, blanking the plate on the medium-only assay blank wells. Untreated cells receiving XTT reagents-only served as positive cell proliferation control."}, "[2]": {"test_system": "human adenovirus type 5 (Ad5, McEwen strain)", "experiment": "Antiviral plaque assay on A549 cell monolayer", "type": "cell-based", "conditions": "virus mixed with sample 1 hr at 37C; for Effect on monolayer (plaques counted), 10^−0 undiluted: dilution 10^−0; for Effect on monolayer (plaques counted), 10^−1: dilution 10^−1; for Effect on monolayer (plaques counted), 10^−2: dilution 10^−2; for Effect on monolayer (plaques counted), 10^−3: dilution 10^−3; for Effect on monolayer (plaques counted), 10^−4: dilution 10^−4; for Effect on monolayer (plaques counted), 10^−5: dilution 10^−5; for Effect on monolayer (plaques counted), 10^−6: dilution 10^−6", "experimental": "An equal volume of human adenovirus type 5 (Ad5, McEwen strain) was mixed with each of the three samples listed below. The mixtures were incubated at 37C for 1 hr and then diluted in tissue culture medium (Dulbecco's Modified Eagle Medium [DMEM] containing heat inactivated 2% fetal bovine serum). The mixtures were then diluted in 10-fold serial dilutions using the same diluent mentioned above. 0.1 ml of each diluted mixture was inoculated on to a A549 cell monolayer grown in 12 well plates (cell source, ATTC) and allowed to adsorb for 1 hr. The inoculum was removed and the monolayer rinsed with diluent and agarose/DMEM overlay applied. The plates were incubated at 37° C. in 5% CO2 atmosphere for 6 days. The monolayers were then fixed, stained and the plaques counted."}, "[3]": {"test_system": "Escherichia coli (ATCC 11229)", "experiment": "Bactericidal activity (colony count, MBC)", "type": "cell-based", "experimental": "To determine the bactericidal activity, we used Escherichia coli (ATCC 11229). The bacterial culture was diluted in sterile saline to prepare inocula. Various test articles were transferred to individual tubes already containing 1.0×10^5 to 2.0×10^5 Colony Forming Units (CFU)/mL bacteria and mixed by gentle vortexing and then incubated at 37° C. for 1 or 24 hours. In an attempt to mimic as far as possible the conditions, which could be produced in vivo if the test articles were used as antiseptics, bacterial plating in a Petri dish was performed immediately after the designated exposure time without the addition of a neutralizer, and independently with addition of neutralizer (as control). Thus, 0.1 mL was removed after 1 or 24 hours exposure times and plated. Plates were incubated at 37° C., and the numbers of bacteria were counted by direct colony count to numerate the surviving bacteria as CFU/mL. Positive growth controls were made with sterile 0.9% saline. All test articles were tested three times."}, "[4]": {"experiment": "XTT cytotoxicity assay on L929 cells", "type": "cell-based", "conditions": "mouse", "protocol": "Cytotoxicity was assessed by a colorimetric assay system, initially described by Scudiero et al., using 3′-(phenylamino-carbonyl)-3,4-tetrazolium-bis (4-methoxy-6-nitro) benzene sulfonic acid hydrate (XTT), ProCheck™ cell viability assay (Evaluation of a soluble tetrazolium/formazan assay for cell growth and drug sensitivity in culture using human and other tumor cell lines described by Scudiero D A, Shoemaker R A H, Paul K D, Monks A, Tierney S, Nofziger T H, Currens M J, Seniff D, Boyd M R. Cancer Res. 1988 Septmeber 1;48(17):4827-33). […] Three cell types were used: mouse lung epithelial cells (L929), primary human skin fibroblast and primary human keratinocyte cells cultured in Dulbecco Modified Eagle's Medium and Keratinocyte defined medium with corresponding growth factors plus antibiotics. Cells were trypsinized and counted under the microscope and seeded at 1000-to-2000 cells per well of a flat-bottom 96-well plate. Cells were allowed to grow over-night at 37° C. Next day, tissue culture media was removed and cells were rinsed with fresh media 1× and then left in 50 μL of tissue culture media. […] Absorbance was read at 450 nm with reference wavelength at 750 nm using Molecular Device ThermoMax Plate reader, blanking the plate on the medium-only assay blank wells. […]"}, "[5]": {"experiment": "UV-vis spectrum and concentration of NNDCT solutions at varying pH", "type": "physicochemical", "conditions": "1.49 mM, pH 3.0 to 5.0", "experimental": "The spectra and the concentrations of the solutions were measured on the UV-vis spectrometer.\nAdd 8.8 g NaCl, 2 ml of 1.0 M HCl, and 0.278 g of taurine into a 1000-ml volumetric flask, followed by adding about 800 ml of deionized water into the flask. Shake the flask to dissolve NaCl and taurine powders. Then add […] of 0.15M of the NaOCl solution into the flask. Fill the flask up to the mark with deionized water. Stir the solution with a magnetic stirring bar for 5 minutes. The concentration and the pH of the resulting solution were measured on a UV-vis spectrometer and a freshly calibrated Beckman pH meter. This solution has a concentration of 1.49 mM and a pH value of 3.85. […] The final pH of this solution is 3.0. […] The final pH of this solution is 4.85."}, "[6]": {"type": "physicochemical", "excerpt": "NNDCT and NCT are spectrophotometrically distinguishable. NCT has a maximum absorbance at 252 nm. […] The solution was sealed in ampoules."}, "[7]": {"type": "physicochemical", "excerpt": "N,N-dichlorotaurine can be identified and quantitatively determined by UV spectroscopy.", "remark": "listed apart in the source"}, "[8]": {"experiment": "Volatility test, tightly vs loosely capped bottles", "type": "physicochemical", "conditions": "1.47 mM in 0.9% saline", "experimental": "NNDCT is not volatile. A solution of 1.47 mM in 0.9% saline at pH 3.5 was filled in two glass bottles. One bottle was capped tightly and another was capped loosely."}, "[9]": {"conditions": "pH=1.88, after 100 hours; cited from earlier work"}, "[10]": {"conditions": "Homo sapiens, Skin fibroblast, Table 2, pH 3.5, in vitro cytotoxicity, read-out: IC50"}, "[11]": {"conditions": "Escherichia coli, ATCC11229, Table 2, pH 3.5, read-out: MBC"}},
  "note": "Like-named read-outs stand apart in the source and are kept apart here.",
  "data": [
    {"compound": "OCl", "note": "[HOCl, hypochlorous acid, reference compound]", "values": [
      {"measurement": "IC50", "setting": "[1]; [10]", "value": 47, "unit": "µg/mL"},
      {"measurement": "Effect on monolayer (plaques counted), 10^−0 undiluted", "setting": "[2]", "value": 14},
      {"measurement": "Effect on monolayer (plaques counted), 10^−1", "setting": "[2]", "value": 9},
      {"measurement": "Effect on monolayer (plaques counted), 10^−2", "setting": "[2]", "value": 3},
      {"measurement": "Effect on monolayer (plaques counted), 10^−3", "setting": "[2]", "value": 1},
      {"measurement": "Effect on monolayer (plaques counted), 10^−4", "setting": "[2]", "value": 4},
      {"measurement": "Effect on monolayer (plaques counted), 10^−5", "setting": "[2]", "value": 4},
      {"measurement": "Effect on monolayer (plaques counted), 10^−6", "setting": "[2]", "value": 1},
      {"measurement": "MBC", "setting": "[3]; [11]", "value": 0.16, "unit": "µg/mL"},
      {"measurement": "effective antimicrobial concentration range", "setting": "[3]; pH 3.5, 60 min, 37° C.", "value": "≥ 0.016", "unit": "mM"},
      {"measurement": "effective antimicrobial concentration range", "setting": "[3]; pH 3.5, 24 hrs, 37° C.", "value": "≥ 0.0016", "unit": "mM"}
    ]},
    {"compound": "O=S(=O)(O)CCNCl", "note": "[NCT, N-chlorotaurine]", "values": [
      {"measurement": "factor by which less antimicrobial than NNDCT on an equal concentration basis", "setting": "[3]", "value": 1000, "unit": "fold"},
      {"measurement": "MBC", "setting": "[3]; Escherichia coli, ATCC11229, 1 h, pH 9.5, read-out: MBC (Minimum Bactericidal Concentration)", "value": 142, "unit": "µg/mL"}
    ]},
    {"compound": "O=S(=O)(O)CCN(Cl)Cl", "note": "[NNDCT, N,N-dichlorotaurine]", "values": [
      {"measurement": "viability at 60 min, 7 mM", "setting": "[4]", "value": "> 90", "unit": "%"},
      {"measurement": "spectrum and concentration of NNDCT solution over pH range", "setting": "[5]", "value": "did not change"},
      {"measurement": "loss of N,N-dichlorotaurine", "setting": "[6]; solution in a vial stored in a refrigerator, three months", "value": "no more than 13%"},
      {"measurement": "NNDCT lost", "setting": "[6]; solution pH 3.5, sealed ampoules, refrigerator (4° C.), 4 weeks, initial 1.47 mM", "value": 5.4, "unit": "%"},
      {"measurement": "solubility in water", "setting": "[7]", "value": "very soluble"},
      {"measurement": "volatility", "setting": "[8]; pH 3.5", "value": "not volatile"},
      {"measurement": "difference in concentration between tightly and loosely capped bottle", "setting": "[8]; pH 3.5, 4 weeks, room temperature", "value": "no difference"},
      {"measurement": "loss of N,N-dichlorotaurine", "setting": "[9]", "value": "less than 5%"},
      {"measurement": "IC50", "setting": "[1]; [10]", "value": 1440, "unit": "µg/mL"},
      {"measurement": "killing efficiency of NNDCT at pH 3.5 as compared to NCT at pH 9.5", "setting": "[3]; 60 min exposure, 37° C.", "value": 1000, "unit": "fold"},
      {"measurement": "killing efficiency of NNDCT at pH 3.5 over NNDCT at pH 5.0", "setting": "[3]; 60 min exposure, 37° C.", "value": "about 300 fold"},
      {"measurement": "MBC", "setting": "[3]; Escherichia coli, ATCC11229, 1 h, pH 3.5, isotonic solution, 60 min, 37° C., read-out: MBC (Minimum Bactericidal Concentration)", "value": 0.136, "unit": "µg/mL"},
      {"measurement": "MBC", "setting": "[3]; Escherichia coli, ATCC11229, 1 h, pH 5.0, isotonic solution, 60 min, 37° C., read-out: MBC (Minimum Bactericidal Concentration)", "value": 38, "unit": "µg/mL"},
      {"measurement": "MBC", "setting": "[3]; [11]", "value": 0.29, "unit": "µg/mL"},
      {"measurement": "effectiveness against E. coli compared with HOCl", "setting": "[3]; pH 3.5", "value": "better or as effective"}
    ]},
    {"compound": "CC(C)(CS(=O)(=O)O)N(Cl)Cl", "note": "[Sample 1, N,N-dichloro-1,1-dimethylethanesulphonic acid]", "values": [
      {"measurement": "Effect on monolayer (plaques counted), 10^−0 undiluted", "setting": "[2]", "value": "Early toxic"},
      {"measurement": "Effect on monolayer (plaques counted), 10^−1", "setting": "[2]", "value": 28},
      {"measurement": "Effect on monolayer (plaques counted), 10^−2", "setting": "[2]", "value": 17},
      {"measurement": "Effect on monolayer (plaques counted), 10^−3", "setting": "[2]", "value": 3},
      {"measurement": "Effect on monolayer (plaques counted), 10^−4", "setting": "[2]", "value": 3},
      {"measurement": "Effect on monolayer (plaques counted), 10^−5", "setting": "[2]", "value": 3},
      {"measurement": "Effect on monolayer (plaques counted), 10^−6", "setting": "[2]", "value": 9}
    ]},
    {"compound": "Povidone-Iodine [reference compound]", "values": [
      {"measurement": "IC50", "setting": "[1]; Table 2, pH 4.2, in vitro cytotoxicity", "value": 2.5, "unit": "µg/mL"},
      {"measurement": "MBC", "setting": "[3]; Table 2, pH 4.2", "value": 0.38, "unit": "µg/mL"}
    ]}
  ]
}
